Data reported in patent US9457033B2, “Steroid alkaloids and uses thereof as antimicrobial agents against electron transport-deficient microbes and as potentiators for antimicrobial agents against pathogenic bacteria” (priority 2011, dated 2016).
Values after ≈ are worked out from the molar mass of the structure shown. Counter-ions that a name gives are not always drawn.

Key:
Type in all cases: cell-based, Staphylococcus aureus
S. aureus ATCC 29213 [1] = test: MIC, microdilution in CAMHB 24 h, with or without tomatidine/compound; details: for MIC: Staphylococcus aureus; for Fold (−TO/+TO): tomatidine at 8 μg/ml
[2] = tested on: S. aureus SCV strain NewbouldΔhemB; test: MIC of compounds against SCV; details: for MIC of Cpd against SCV hemB: provided in categories (strong ≦ 0.5; moderate 4-8; low > 8); for MIC: Staphylococcus aureus, read-out: MIC of Cpd against SCV hemB
S. aureus ATCC 29213 [3] = test: Checkerboard assay, aminoglycoside and tomatidine; details: for MIC: Staphylococcus aureus, ATCC29213, checkerboard; for FIC index: aminoglycoside with tomatidine, tomatidine MIC considered 32 μg/ml, values overestimated; for Aminoglycoside MIC: checkerboard
Experimental: This checkerboard protocol (Eliopoulos and Moellering, 1996) was conducted by a microdilution method similar to that use for standard MICs determination. In 96 wells plates, antibiotics were loaded at a 4× concentration (where X is the maximal tested concentration) in well A1 and at a 2× concentration in the others wells of the column 1. Antibiotics were serially diluted 1:1 from the column 2 to column 10. […] Wells A12, B12, […] are positive untreated controls whereas wells […] are negative non-inoculated controls. […] The FIC index was calculated as follow (Eliopoulos and Moellering, 1996): FIC […]/MICB, where A and B are MICs of compounds A and B in combination and where MICA and MICB are the MICs of compound A alone and of compound B alone, respectively, and FICA and FICB are the FICs of compound A and of compound B, respectively.

[4] = gentamicin with 8 μg/ml of Cpd, provided in categories of synergy (1-2 no or mild; 4-16 moderate or strong)
[5] = ATCC29213, read-out: MIC of Cpd against ATCC29213
[6] = ATCC29213, compound alone, read-out: MIC of Cpd against ATCC29213

Row | Molecule | MIC of Cpd against ATCC29213 (S. aureus ATCC 29213 [1]; compound alone) [µg/mL] | Fold (MIC of GEN alone/MIC of GEN with Cpd) (S. aureus ATCC 29213 [1]; [4]) | MIC of Cpd against SCV hemB [2] | MIC [2] [µg/mL] | also measured
1 | pregnan-3β-ol-20-(aminopropyl)amine hydrochloride Salt [Compound 43] | >16 | 1-2 fold | 4 to 8 µg/mL |  | 
2 | C[C@H]1CC[C@]2(NC1)O[C@H]1C[C@H]3[C@@H]4CC[C@H]5C[C@@H](O)CC[C@]5(C)[C@H]4CC[C@]3(C)[C@H]1[C@@H]2C [Tomatidine hydrochloride salt] |  | 4-16 fold |  | ≤ 0.5 | MIC (S. aureus ATCC 29213 [1]; [5]): > 16 µg/mL
3 | C=CCOC1CCC2(C)C(CCC3C2CCC2(C)C3CC3OC4(CCC(C)CN4)C(C)C32)C1.Cl (centres unmarked) [Compound 56, O-allyltomatidine hydrochloride Salt] | 8 to 16 |  | ≦0.5 μg/ml |  | Fold (MIC of GEN alone/MIC of GEN with Cpd) (S. aureus ATCC 29213 [1]; gentamicin with Compound 56 used at 4 μg/ml, categories of synergy): 4-16 fold
4 | C[C@H](CN)CCC[C@@H](C)C1[C@@H](O)C[C@H]2[C@@H]3CC[C@H]4C[C@@H](O)CC[C@]4(C)[C@H]3CC[C@]12C (some centres unmarked) [Compound 26] |  | 4-16 fold |  | ≤ 0.5 | MIC (S. aureus ATCC 29213 [1]; [5]): > 16 µg/mL
5 | [H]/N=C(/N)N[C@H]1[C@H](O)[C@@H](O)[C@H](O[C@@H]2O[C@@H](C)[C@](O)(C=O)[C@H]2O[C@@H]2O[C@@H](CO)[C@H](O)[C@@H](O)[C@@H]2NC)[C@@H](N/C(N)=N\[H])[C@@H]1O [Streptomycin, streptomycin] |  |  |  |  | Fold (−TO/+TO) (S. aureus ATCC 29213 [1]; ATCC 29213): 4-8 fold; MIC (S. aureus ATCC 29213 [1]; ATCC29213, ATCC 29213, absence of tomatidine, read-out: MIC −TO): 4 to 8 µg/mL (≈ 6.88 to 13.8 µM); MIC (S. aureus ATCC 29213 [1]; ATCC29213, ATCC 29213, presence of tomatidine at 8 μg/ml, read-out: MIC +TO): 1 µg/mL; MIC (S. aureus ATCC 29213 [3]; tomatidine 0 μg/ml): 4 to 8 µg/mL; MIC (S. aureus ATCC 29213 [3]; tomatidine 0.06 μg/ml): 4 µg/mL; MIC (S. aureus ATCC 29213 [3]; tomatidine 0.12 μg/ml): 2 µg/mL; MIC (S. aureus ATCC 29213 [3]; tomatidine 0.25 μg/ml): 1 to 2 µg/mL; MIC (S. aureus ATCC 29213 [3]; tomatidine 0.5 μg/ml): 1 µg/mL; MIC (S. aureus ATCC 29213 [3]; tomatidine 1 μg/ml): 1 µg/mL; MIC (S. aureus ATCC 29213 [3]; tomatidine 2 μg/ml): 1 µg/mL; MIC (S. aureus ATCC 29213 [3]; tomatidine 4 μg/ml): 1 µg/mL; MIC (S. aureus ATCC 29213 [3]; tomatidine 8 μg/ml): 1 µg/mL; FIC index (S. aureus ATCC 29213 [3]): ≦0.199
6 | C[C@H]1CC[C@]2(NC1)O[C@@]1(C)C[C@@]3(C)[C@@H]4CC[C@@]5(C)C[C@@H](O)CC[C@]5(C)[C@@]4(C)CC[C@]3(C)[C@@]1(C)[C@@H]2C.O=C(O)CC(O)(CC(=O)O)C(=O)O [Compound 58, tomatidine citrate] |  | 4-16 fold |  | ≤ 0.5 | MIC (S. aureus ATCC 29213 [1]; [5]): > 16 µg/mL
7 | pregnan-3β-ol-20-(aminobutyl)amine hydrochloride Salt [Compound 44] | >16 | 1-2 fold | >8 µg/mL |  | 
8 | C[C@]12CC[C@H](O)C[C@@H]1CC[C@@H]1[C@@H]2CC[C@]2(C)[C@@H](C(=O)CN3CCCCC3)CC[C@@H]12 [Compound 48, 21-piperidinopregnanolone] |  | 1-2 fold |  | > 8 | MIC (S. aureus ATCC 29213 [1]; [5]): > 16 µg/mL
9 | CC(=O)[C@H]1CC[C@H]2[C@@H]3CC[C@H]4C[C@@H](O)CC[C@]4(C)[C@H]3CC[C@]12C [Compound 28, Pregnanolone] |  | 1-2 fold |  | > 8 | MIC (S. aureus ATCC 29213 [1]; [5]): > 16 µg/mL
10 | C[C@H]1CC[C@@]2(O[C@H]3C[C@H]4[C@@H]5CC[C@H]6C[C@@H](O)CC[C@]6(C)[C@H]5CC[C@]4(C)[C@H]3[C@@H]2C)N(C=O)C1 [Compound 21, N-formyl tomatidine] | >16 | 1-2 fold | >8 µg/mL |  | 
11 | pregnan-3β-ol-20-(aminoethyl)amine hydrochloride Salt [Compound 42] | >16 | 1-2 fold | 4 to 8 µg/mL |  | 
12 | Solasodan | >16 | 1-2 fold | >8 µg/mL |  | 
13 | CN(C)CC(=O)[C@H]1CC[C@H]2[C@@H]3CC[C@H]4C[C@@H](O)CC[C@]4(C)[C@H]3CC[C@]12C [Compound 47, N,N-dimethyl-21-aminopregnanolone] |  | 1-2 fold |  | > 8 | MIC (S. aureus ATCC 29213 [1]; [5]): > 16 µg/mL
14 | CNCC(=O)[C@H]1CC[C@H]2[C@@H]3CCC4CC(O)CC[C@]4(C)[C@H]3CC[C@]12C.Cl (some centres unmarked) [Compound 49, N-methyl-21-aminopregnanolone hydrochloride salt] | >16 | 1-2 fold | >8 µg/mL |  | 
15 | C[C@H]1CC[C@]2(NC1)O[C@H]1C[C@H]3[C@@H]4CC[C@H]5CC(=O)CC[C@]5(C)[C@H]4CC[C@]3(C)[C@H]1[C@@H]2C.Cl [Compound 25, 3-oxotomatidine hydrochloride Salt] | >16 | 4-16 fold | ≦0.5 μg/ml |  | 
16 | C[C@H]1CC[C@@]2(NC1)O[C@H]1C[C@H]3[C@@H]4CC[C@H]5C[C@H](O)CC[C@]5(C)[C@H]4CC[C@]3(C)[C@H]1[C@@H]2C.Cl [Compound 23, 3α-hydroxytomatidine hydrochloride Salt] | >16 | 4-16 fold | 4 to 8 µg/mL |  | 
17 | CC(N)[C@H]1CC[C@H]2[C@@H]3CC[C@H]4C[C@@H](O)CC[C@]4(C)[C@H]3CC[C@]12C (stereo partly drawn) [Compound 30a, pregnan-3β-ol-20-amine] |  | 1-2 fold |  | > 8 | MIC (S. aureus ATCC 29213 [1]; [6]): > 16 µg/mL
18 | CS(=O)(=O)O.C[C@H]1CC[C@]2(NC1)O[C@H]1C[C@H]3[C@@H]4CC[C@H]5C[C@@H](O)CC[C@]5(C)[C@H]4CC[C@]3(C)[C@H]1[C@@H]2C [Compound 57, tomatidine methanesulfonate] | >16 | 4-16 fold | ≦0.5 μg/ml |  | 
19 | CC(O)[C@H]1CC[C@H]2[C@@H]3CC[C@H]4C[C@@H](O)CC[C@]4(C)[C@H]3CC[C@]12C (stereo in doubt) [Compound 54, pregnane-3,20-diol] |  | 1-2 fold |  | > 8 | MIC (S. aureus ATCC 29213 [1]; [6]): > 16 µg/mL
20 | C[C@]12CC[C@H]3[C@@H](CCC4CC(O)CC[C@@]43C)[C@@H]1CC[C@@H]2C(=O)CN1CCNCC1.Cl (some centres unmarked) [Compound 50, 21-piperazinopregnanolone hydrochloride Salt] | >16 | 1-2 fold | >8 µg/mL |  | 
21 | CC(NCCCN(C)C)[C@H]1CC[C@H]2[C@@H]3CC[C@H]4C[C@@H](O)CC[C@]4(C)[C@H]3CC[C@]12C (stereo partly drawn) [Compound 32, pregnan-3β-ol-20-((N,N-dimethylamino)propyl)amine] |  | 4-16 fold |  | > 8 | MIC (S. aureus ATCC 29213 [1]; [6]): > 16 µg/mL
22 | NCC[C@H](O)C(=O)N[C@@H]1C[C@H](N)[C@@H](O[C@H]2O[C@H](CN)[C@@H](O)[C@H](O)[C@H]2O)[C@H](O)[C@H]1O[C@H]1O[C@H](CO)[C@@H](O)[C@H](N)[C@H]1O [Amikacin, amikacin] |  |  |  |  | MIC −TO (S. aureus ATCC 29213 [1]; ATCC 29213, absence of tomatidine): 2 µg/mL (≈ 3.42 µM); MIC +TO (S. aureus ATCC 29213 [1]; ATCC 29213, presence of tomatidine at 8 μg/ml): 0.5 µg/mL; Fold (−TO/+TO) (S. aureus ATCC 29213 [1]; ATCC 29213): 4 fold; FIC index (S. aureus ATCC 29213 [3]): ≦0.133; Aminoglycoside MIC (S. aureus ATCC 29213 [3]; tomatidine 0 μg/ml): 2 µg/mL; Aminoglycoside MIC (S. aureus ATCC 29213 [3]; tomatidine 0.06 μg/ml): 2 µg/mL; Aminoglycoside MIC (S. aureus ATCC 29213 [3]; tomatidine 0.12 μg/ml): 0.5 µg/mL; Aminoglycoside MIC (S. aureus ATCC 29213 [3]; tomatidine 0.25 μg/ml): 0.25 µg/mL; Aminoglycoside MIC (S. aureus ATCC 29213 [3]; tomatidine 0.5 μg/ml): 0.25 to 0.5 µg/mL; Aminoglycoside MIC (S. aureus ATCC 29213 [3]; tomatidine 1 μg/ml): 0.25 to 1 µg/mL; Aminoglycoside MIC (S. aureus ATCC 29213 [3]; tomatidine 2 μg/ml): 0.25 to 1 µg/mL; Aminoglycoside MIC (S. aureus ATCC 29213 [3]; tomatidine 4 μg/ml): 0.25 µg/mL; Aminoglycoside MIC (S. aureus ATCC 29213 [3]; tomatidine 8 μg/ml): 0.5 µg/mL
